Results: patent publication US8324214B2, “1,3-dihydro-2H-pyrrolo[3,2-bpyridin-2-one derivatives, preparation thereof and therapeutic uses thereof” (Sanofi, priority 2008, dated 2012)
Structures can show the parent of a compound that is named as a salt. One block for each molecule: values may come before it.

Legend:
[1] = target: T1, human V1a receptors (Homo sapiens, UniProt P37288); test: Displacement of [3H]-AVP at V1a receptors (binding affinity); details: for IC50: affinity at human V1a receptors, [3H]-AVP displacement; for selectivity for the human V1a and V1b receptors for AVP (in words): versus V2 / oxytocin receptors
Description: The affinity of the compounds of formula (I) according to the invention for the arginine-vasopressin V1a receptors was determined in vitro using the method described by M. Thibonnier et al., J. Biol. Chem., 1994, 269, 3304-3310. This method consisted in studying in vitro the displacement of tritiated arginine-vasopressin ([3H]-AVP) at the V1a receptors present on membrane or cell preparations carrying the rat or human V1a receptors.

[2] = target: T2, human V1b receptors (Homo sapiens, UniProt P47901); test: Displacement of [3H]-AVP at V1b receptors (binding affinity); details: [3H]-AVP displacement
T2 sequence (P47901 1-424): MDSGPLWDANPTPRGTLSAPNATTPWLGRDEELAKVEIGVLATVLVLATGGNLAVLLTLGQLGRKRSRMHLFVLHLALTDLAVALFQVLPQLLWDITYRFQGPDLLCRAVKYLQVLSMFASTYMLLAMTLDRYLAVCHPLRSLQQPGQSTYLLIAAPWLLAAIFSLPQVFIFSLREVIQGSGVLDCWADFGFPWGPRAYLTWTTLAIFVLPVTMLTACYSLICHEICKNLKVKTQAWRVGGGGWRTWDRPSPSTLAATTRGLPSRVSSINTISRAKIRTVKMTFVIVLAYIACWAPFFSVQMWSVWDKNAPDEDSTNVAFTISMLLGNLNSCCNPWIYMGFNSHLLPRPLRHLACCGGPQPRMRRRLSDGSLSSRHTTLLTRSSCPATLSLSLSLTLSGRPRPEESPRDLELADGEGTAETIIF
Description: The affinity of the compounds of formula (I) according to the invention for the arginine-vasopressin V1b receptors was determined in vitro using the method described by Y. de Keyser et al. in Febs Letters, 1994, 356, 215-220. This method consists in studying in vitro the displacement of tritiated arginine-vasopressin ([3H]-AVP) at the V1b receptors present on cell preparations carrying the human V1b receptors.

[3] = target: human V2 receptors (Homo sapiens, UniProt P30518); test: Affinity for vasopressin V2 receptors; format: binding; details: for IC50: affinity at human V2 receptors
Text: Th affinity of the compounds of formula (I) according to the invention for the vasopressin V2 receptors was also studied (method described by M. Birnbaumer et al. in Nature (Lond.), 1992, 357, 333-335).

[4] = target: T3, human uterine oxytocin receptor (Homo sapiens, UniProt P30559); test: Displacement of radioiodinated oxytocin analogue at oxytocin receptors; format: binding; details: for IC50: affinity at human oxytocin receptors
T3 construct: expressed in transfected cells
T3 sequence (P30559 1-389): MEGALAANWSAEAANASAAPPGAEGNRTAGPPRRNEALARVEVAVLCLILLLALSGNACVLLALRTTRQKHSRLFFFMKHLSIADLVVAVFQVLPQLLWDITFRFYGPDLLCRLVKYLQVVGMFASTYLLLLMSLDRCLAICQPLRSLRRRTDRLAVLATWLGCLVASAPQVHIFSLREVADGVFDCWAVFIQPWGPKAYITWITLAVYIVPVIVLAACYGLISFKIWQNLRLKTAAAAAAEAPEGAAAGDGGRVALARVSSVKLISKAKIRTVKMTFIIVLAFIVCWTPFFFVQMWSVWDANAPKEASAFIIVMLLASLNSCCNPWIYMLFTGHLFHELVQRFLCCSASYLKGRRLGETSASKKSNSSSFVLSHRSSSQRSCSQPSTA
Description: The affinity of the compounds according to the invention for the oxytocin receptors was determined in an in vitro binding test using the method described by J. Elands et al. in Eur. J. Pharmacol., 1987, 147, 197-207. This method consists in studying in vitro the displacement of a radioiodinated analogue of oxytocin at the oxytocin receptors in a membrane preparation of cells transfected with the human uterine oxytocin receptor.

[5] = target: T1, human V1a receptors; test: Intracellular calcium measurement (FLIPR) on cells expressing V1a receptors; format: cell-based; details: FLIPR and platelet aggregation tests; blocking effects caused by arginine-vasopressin
Description: The agonist or antagonist character of the compounds is determined in vitro in a test for measuring intracellular calcium (FLIPR) on cells expressing the human V1a receptors according to the general technique described in Sullivan et al, Methods Mol. Biol., 1999, 114, 125-133, using 1 μM Fluo-4 AM and in an AVP-induced platelet aggregation test on human PRP (platelet rich plasma) according to the methodology described in J. Clin. Invest., 1993, 92, 224.231. The compounds are preincubated for 30 minutes before the addition of arginine vasopressin in order to determine the agonist and antagonist properties of these molecules.

Chain of human V2 receptors (P30518 whole entry): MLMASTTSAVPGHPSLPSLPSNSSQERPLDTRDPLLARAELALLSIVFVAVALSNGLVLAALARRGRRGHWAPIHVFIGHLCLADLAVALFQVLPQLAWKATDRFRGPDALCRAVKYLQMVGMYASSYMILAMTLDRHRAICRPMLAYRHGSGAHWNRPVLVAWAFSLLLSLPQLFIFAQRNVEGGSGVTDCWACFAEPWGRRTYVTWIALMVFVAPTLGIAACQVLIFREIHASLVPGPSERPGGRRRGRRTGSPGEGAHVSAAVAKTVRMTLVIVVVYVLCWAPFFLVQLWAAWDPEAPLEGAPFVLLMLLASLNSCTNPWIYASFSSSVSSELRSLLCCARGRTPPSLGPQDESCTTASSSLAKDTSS
T1 sequence (P37288 whole entry): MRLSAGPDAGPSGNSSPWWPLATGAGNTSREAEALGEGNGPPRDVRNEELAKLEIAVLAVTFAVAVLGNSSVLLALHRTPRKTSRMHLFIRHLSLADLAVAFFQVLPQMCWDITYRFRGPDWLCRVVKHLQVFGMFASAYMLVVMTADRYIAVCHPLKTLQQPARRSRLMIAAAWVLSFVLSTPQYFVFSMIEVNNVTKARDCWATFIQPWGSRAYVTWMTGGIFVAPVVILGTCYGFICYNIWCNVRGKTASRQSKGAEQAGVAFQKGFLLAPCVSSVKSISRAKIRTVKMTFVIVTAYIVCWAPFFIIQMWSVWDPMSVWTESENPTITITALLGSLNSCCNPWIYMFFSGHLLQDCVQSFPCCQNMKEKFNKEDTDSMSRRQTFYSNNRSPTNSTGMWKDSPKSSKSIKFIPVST

Compound: COc1ccc2c(n1)C(CCCN1CCCCC1)(c1ccccc1F)C(=O)N2S(=O)(=O)c1ccc(OC(F)F)cc1 (centres unmarked) (as salt: HCl)
melting point: 133 °C

Compound: CCN(CC)C(=O)Nc1ccc(S(=O)(=O)N2C(=O)C(NCCC3CCNCC3)(c3ccccc3Cl)c3cc(Cl)c(C)cc32)cc1 (stereo not drawn) [Compound β, 3-[4-[[5-chloro-3-(2-chlorophenyl)-6-methyl-2-oxo-3-[(2-piperidin-4-ylethyl)amino]-2,3-dihydro-1H-indol-1-yl]sulphonyl]phenyl]-1-diethylurea]
affinity for the human V1a receptors for AVP (in words) [1]: good affinity
IC50 [1]: 18 nM
selectivity for the human V1a and V1b receptors for AVP (in words) [1]: not therefore selective
IC50 [2]: 180 nM
affinity for the human V2 receptors for AVP (in words) [3]: good affinity
IC50 [3]: 13 nM
IC50 [4]: 69 nM

Compound: COc1ccc2c(n1)C(CCCN1CCNCC1)(c1ccccc1F)C(=O)N2S(=O)(=O)c1cccc(Cl)c1 (centres unmarked) [No. 4]
agonist or antagonist character [5]: V1a receptor antagonists

Compound: COc1ccc2c(n1)C(CCCN1CCNCC1)(c1ccccc1F)C(=O)N2S(=O)(=O)c1cccc(Cl)c1 (centres unmarked) (as salt: HCl) [compound 4, 1-[(3-chlorophenyl)sulphonyl]-3-(2-fluorophenyl)-5-methoxy-3-(3-piperazin-1-ylpropyl)-1,3-dihydro-2H-pyrrolo[3,2-b]pyridin-2-one]
melting point: 177 °C

Compound: CCN(CC)C(=O)Nc1ccc(S(=O)(=O)N2C(=O)C(NCCC3CCNCC3)(c3ccccc3Cl)c3cc(Cl)c(Cl)cc32)cc1 (stereo not drawn) [Compound α, 3-[4-[[5,6-dichloro-3-(2-chlorophenyl)-2-oxo-3-[(2-piperidin-4-ylethyl)amino]-2,3-dihydro-1H-indol-1-yl]sulphonyl]phenyl]-1,1-diethylurea]
affinity for the human V1a receptors for AVP (in words) [1]: good affinity
IC50 [1]: 23 nM
selectivity for the human V1a and V1b receptors for AVP (in words) [1]: not therefore selective
IC50 [2]: 210 nM
affinity for the human V2 receptors for AVP (in words) [3]: good affinity
IC50 [3]: 19 nM
affinity for the oxytocin receptors (in words) [4]: good affinity
IC50 [4]: 100 nM

Compound: COc1ccc2c(n1)C(CCCN1CCCCC1)(c1ccccc1F)C(=O)N2S(=O)(=O)c1cccc(Cl)c1 (centres unmarked) (as salt: HCl)
melting point: 148 °C

Compound: COc1cccc(S(=O)(=O)N2C(=O)C(CCCN3CCCCC3)(c3ccccc3F)c3nc(OC)ccc32)c1.Cl (single isomer, unassigned)
melting point: 148 °C

Compound: COc1ccc2c(n1)C(CCCCN1CCNCC1)(c1ccccc1F)C(=O)N2S(=O)(=O)c1ccc(OC(C)C)cc1 (racemic) (as salt: HCl) [Compound No. 10, 3-(2-Fluorophenyl)-1-[(4-isopropoxyphenyl)sulphonyl]-5-methoxy-3-(4-piperazin-1-ylbutyl)-1,3-dihydro-2H-pyrrolo[3,2-b]pyridin-2-one]
melting point: 210 °C

Compound: COc1cccc(S(=O)(=O)N2C(=O)C(CCCN3CCNCC3)(c3ccccc3F)c3nc(OC)ccc32)c1.Cl (single isomer, unassigned)
melting point: 178 °C

Compound: COc1ccc2c(n1)C(CCCN1CCNCC1)(c1ccccc1F)C(=O)N2S(=O)(=O)c1cccc(Cl)c1 (centres unmarked) [compound 4, 1-[(3-chlorophenyl)sulphonyl]-3-(2-fluorophenyl)-5-methoxy-3-(3-piperazin-1-ylpropyl)-1,3-dihydro-2H-pyrrolo[3,2-b]pyridin-2-one]
IC50 [1]: 8.9 nM
IC50 [2]: > 1000 nM
IC50 [3]: > 1000 nM
IC50 [4]: > 1000 nM

Compound: Cc1ccc2c(n1)C(CCCN1CCNCC1)(c1ccccc1F)C(=O)N2S(=O)(=O)c1ccc(OC(C)C)cc1.Cl (single isomer, unassigned)
melting point: 150 °C

Second part, the molecule after the results:

melting point: 190 °C
Compound: COc1ccc2c(n1)C(CCCN1CCN(C)CC1)(c1ccccc1F)C(=O)N2S(=O)(=O)c1ccc(OC(C)C)cc1 (centres unmarked) (as salt: HCl) [compound 11, 3-(2-fluorophenyl)-1-[(4-isopropoxyphenyl)sulphonyl]-5-methoxy-3-[3-(4-methylpiperazin-1-yl)propyl]-1,3-dihydro-2H-pyrrolo[3,2-b]pyridin-2-one]

IC50 [1]: 7.1 nM
IC50 [2]: > 1000 nM
IC50 [3]: 210 nM
IC50 [4]: 100 nM
Compound: COc1ccc2c(n1)C(CCCN1CCN(C)CC1)(c1ccccc1F)C(=O)N2S(=O)(=O)c1ccc(OC(C)C)cc1 (centres unmarked) [compound 11, 3-(2-fluorophenyl)-1-[(4-isopropoxyphenyl)sulphonyl]-5-methoxy-3-[3-(4-methylpiperazin-1-yl)propyl]-1,3-dihydro-2H-pyrrolo[3,2-b]pyridin-2-one]

IC50 [1]: 0.82 nM
IC50 [2]: 350 nM
IC50 [3]: 120 nM
IC50 [4]: 71 nM
Compound: COc1ccc2c(n1)C(CCCN1CCNCC1)(c1ccccc1F)C(=O)N2S(=O)(=O)c1ccc(OC(C)C)cc1 (centres unmarked) [Compound No. 2, 3-(2-fluorophenyl)-1-[(4-isopropoxyphenyl)sulphonyl]-5-methoxy-3-(3-piperazin-1-ylpropyl)-1,3-dihydro-2H-pyrrolo[3,2-b]pyridin-2-one]

melting point: 157 °C
Compound: COc1ccc2c(n1)C(CCCN1CCCCC1)(c1ccccc1F)C(=O)N2S(=O)(=O)c1ccc(OC(C)C)cc1 (centres unmarked) (as salt: HCl)

melting point: 52 °C
Compound: COc1ccc2c(n1)C(CCCCN1CCN(C)CC1)(c1ccccc1F)C(=O)N2S(=O)(=O)c1ccc(OC(C)C)cc1 (centres unmarked) (as salt: salt)

melting point: 133 °C
Compound: COc1ccc2c(n1)C(CCCCN1CCNCC1)(c1ccccc1F)C(=O)N2S(=O)(=O)c1ccc(OC(C)C)cc1 (centres unmarked) (as salt: HCl) [compound 14, 3-(2-fluorophenyl)-1-[(4-isopropoxyphenyl)sulphonyl]-5-methoxy-3-(4-piperazin-1-ylbutyl)-1,3-dihydro-2H-pyrrolo[3,2-b]pyridin-2-one]

melting point: 123 °C
Compound: COc1ccc2c(n1)C(CCCN1CCNCC1)(c1ccccc1F)C(=O)N2S(=O)(=O)c1ccc(OC(C)C)cc1 (centres unmarked) (as salt: HCl) [Compound No. 2, 3-(2-fluorophenyl)-1-[(4-isopropoxyphenyl)sulphonyl]-5-methoxy-3-(3-piperazin-1-ylpropyl)-1,3-dihydro-2H-pyrrolo[3,2-b]pyridin-2-one]

agonist or antagonist character [5]: V1a receptor antagonists
Compound: COc1ccc2c(n1)C(CCCN1CCNCC1)(c1ccccc1F)C(=O)N2S(=O)(=O)c1ccc(OC(C)C)cc1 (centres unmarked) [No. 2]
